Data: patent US20230263822A1, “MODULATION OF FACTOR 11 EXPRESSION” (Ionis Pharmaceuticals, Inc., priority 2008, published 2023)
Strand notation (5' to 3'): a small letter for the sugar, then the base; units joined by * are phosphorothioate-linked, units joined directly phosphodiester-linked; [ ] holds rarer units or linkages, { } end groups; capitals alone tell only the bases. e = 2'-O-(2-methoxyethyl) (MOE); [5mC] = 5-methylcytosine; d = 2'-deoxy (DNA)

Assays:
[1] = system: human Factor 11 mRNA; assay: Dose-dependent inhibition of human Factor 11 in HepG2 cells, electroporation 375-12,000 nM (Example 32); format: cell-based; details: for Percent inhibition of Factor 11 mRNA at 375 nM / Percent inhibition of Factor 11 mRNA at 750 nM / IC50: electroporation; for Percent inhibition of Factor 11 mRNA at 375 nM / Percent inhibition of Factor 11 mRNA at 750 nM / Percent inhibition of Factor 11 mRNA at 1,500 nM / Percent inhibition of Factor 11 mRNA at 3,000 nM / Percent inhibition of Factor 11 mRNA at 6,000 nM / Percent inhibition of Factor 11 mRNA at 12,000 nM: approx. 16 hours, relative to untreated control cells; for Percent inhibition of Factor 11 mRNA at 1,500 nM: electroporation, 1,500 nM; for Percent inhibition of Factor 11 mRNA at 3,000 nM: electroporation, 3,000 nM; for Percent inhibition of Factor 11 mRNA at 6,000 nM: electroporation, 6,000 nM; for Percent inhibition of Factor 11 mRNA at 12,000 nM: electroporation, 12,000 nM; for IC50: Factor 11 mRNA expression
Method: These gapmers were tested at various doses in HepG2 cells. Cells were plated at a density of 20,000 cells per well and transfected using electroporation with 375 nM, 750 nM, 1,500 nM, 3,000 nM, 6,000 nM and 12,000 nM concentrations of antisense oligonucleotide, as specified in Table 47. After a treatment period of approximately 16 hours, RNA was isolated from the cells and Factor 11 mRNA levels were measured by quantitative real-time PCR. Human Factor 11 primer probe set RTS 2966 was used to measure mRNA levels. Factor 11 mRNA levels were adjusted according to total RNA content, as measured by RIBOGREEN. Results are presented as percent inhibition of Factor 11, relative to untreated control cells.
ISIS 416850, ISIS 416858, ISIS 445522, and ISIS 445531 (see Table 45 above) were re-tested in vitro along with the microwalk gapmers under the same conditions described above.
The first two listed gapmers in Table 47 are the original gapmers (ISIS 416850 and ISIS 416858) from which the remaining gapmers were designed via microwalk and are designated by an asterisk.

[2] = Tolerability in CD1 mice: liver function, ALT, AST, bilirubin, albumin (Example 33); details: plasma, 50 mg/kg s.c. twice a week
Method: A control group of five mice was injected subcutaneously with PBS for 2 weeks. All experimental groups (i.e. ASO treated mice at 2, 4, 6 weeks) were compared to the control group (i.e. PBS, 2 weeks).
To evaluate the effect of ISIS oligonucleotides on hepatic function, plasma concentrations of transaminases were measured using an automated clinical chemistry analyzer (Hitachi Olympus AU400e, Melville, N.Y.). […] Plasma levels of bilirubin and albumin were also measured using the same clinical chemistry analyzer and expressed in mg/dL.

[3] = Body and organ weights of cynomolgus monkeys (Example 45); format: in vivo; details: for body weights: escalating dose regimen;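 for Organ weights, Kidney: absolute organ weight in grams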;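 for Organ weights, Liver: absolute organ weight in grams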;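 for Organ weights, Spleen: absolute organ weight in grams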
Method: (§1) Groups, each consisting of two male and three female monkeys, were injected subcutaneously with ISIS 416838, ISIS 416850, ISIS 416858, ISIS 416864, or ISIS 417002 in escalating doses. Antisense oligonucleotide was administered to the monkeys at 5 mg/kg three times per a week for week 1; 5 mg/kg twice per week for weeks 2 and 3; 10 mg/kg three times per week for week 4; 10 mg/kg twice per week for weeks 5 and 6; 25 mg/kg three times per week for week 7; and 25 mg/kg twice per week for weeks 8, 9, 10, 11, and 12. One control group, consisting of two male and three female monkeys, was injected subcutaneously with PBS according to the same dosing regimen. An additional experimental group, consisting of two male and three female monkeys, was injected subcutaneously with ISIS 416850 in a chronic, lower dose regimen. Antisense oligonucleotide was administered to the monkeys at 5 mg/kg three times per week for week 1; 5 mg/kg twice per week for week 2 and 3; 10 mg/kg three times per week for week 4; and 10 mg/kg twice per week for weeks 5 to 12. Body weights were measured weekly. Blood samples were collected 14 days and 5 days before the start of treatment and subsequently once per week for Factor 11 protein activity analysis in plasma, fibrinogen measurement, PT and aPTT measurements, bleeding times, and measurement of various hematologic factors. On day 85, the monkeys were euthanized by exsanguination while under deep anesthesia, and organs harvested for further analysis.
Body weights were taken once weekly throughout the dosing regimen. […] Organ weights were taken after the animals were euthanized and livers, kidneys and spleens were harvested and weighed. […] The ISIS oligonucleotide, ISIS 416850, given with the chronic dose regimen is distinguished from the other oligonucleotides with an asterisk (*).

[4] = system: Factor 11 activity; assay: Factor 11 protein activity, F11 assay based on clotting time (Example 45); format: in vivo, cynomolgus monkeys; details: escalating dose regimen
Method: as §1
Blood samples were collected at various time points and Factor 11 proenzyme was measured using a F11 assay based on clotting time. Clotting times were determined in duplicate with a ST4 semi-automated coagulation instrument (Diagnostica Stago, NJ). Thirty μl of citrated sample plasma diluted 1/20 in HEPES-NaCl buffer with BSA was incubated with 30 μl aPTT reagent (Automated aPTT, Organon Technika, NC) and 30 μl of citrated plasma deficient of Factor 11 (George King Bio-Medical Inc.) at 37° C. for 5 min, followed by the addition of 30 μl of 25 mM CaCl2) to initiate clotting. Results were interpolated on a standard curve of serially diluted citrated control plasma.
Results are presented in Table 118 as percent inhibition of Factor 11 activity, relative to PBS control. The ISIS oligonucleotide, ISIS 416850, given with the chronic dose regimen is distinguished from the other oligonucleotides with an asterisk (*).

[5] = after the animals were euthanized

416850 (antisense TGCACAGTTTCTGGCAGGCC; 5-10-5 gapmer, further chemistry not given here) [compound 416850]
Percent inhibition of Factor 11 mRNA at 375 nM [1]: 40% | Percent inhibition of Factor 11 mRNA at 750 nM [1]: 59% | Percent inhibition of Factor 11 mRNA at 1,500 nM [1]: 69% | Percent inhibition of Factor 11 mRNA at 3,000 nM [1]: 87% | Percent inhibition of Factor 11 mRNA at 6,000 nM [1]: 90% | Percent inhibition of Factor 11 mRNA at 12,000 nM [1]: 95% | IC50 [1]: 560 nM

416858 (antisense ACGGCATTGGTGCACAGTTT; 5-10-5 gapmer, further chemistry not given here) [compound 416858]
Percent inhibition of Factor 11 mRNA at 375 nM [1]: 31% | Percent inhibition of Factor 11 mRNA at 750 nM [1]: 35% | Percent inhibition of Factor 11 mRNA at 1,500 nM [1]: 78% | Percent inhibition of Factor 11 mRNA at 3,000 nM [1]: 85% | Percent inhibition of Factor 11 mRNA at 6,000 nM [1]: 90% | Percent inhibition of Factor 11 mRNA at 12,000 nM [1]: 93% | IC50 [1]: 830 nM

445522 (antisense eG*e[5mC]*eA*e[5mC]*eA*dG*dT*dT*dT*d[5mC]*dT*dG*dG*e[5mC]*eA*eG*eG*e[5mC]) [compound 445522]
Percent inhibition of Factor 11 mRNA at 375 nM [1]: 59% | Percent inhibition of Factor 11 mRNA at 750 nM [1]: 71% | Percent inhibition of Factor 11 mRNA at 1,500 nM [1]: 83% | Percent inhibition of Factor 11 mRNA at 3,000 nM [1]: 82% | Percent inhibition of Factor 11 mRNA at 6,000 nM [1]: 81% | Percent inhibition of Factor 11 mRNA at 12,000 nM [1]: 92%

445531 (antisense eG*eG*e[5mC]*eA*eT*dT*dG*dG*dT*dG*d[5mC]*dA*d[5mC]*eA*eG*eT*eT*eT) [compound 445531]
Percent inhibition of Factor 11 mRNA at 375 nM [1]: 44% | Percent inhibition of Factor 11 mRNA at 750 nM [1]: 64% | Percent inhibition of Factor 11 mRNA at 1,500 nM [1]: 78% | Percent inhibition of Factor 11 mRNA at 3,000 nM [1]: 86% | Percent inhibition of Factor 11 mRNA at 6,000 nM [1]: 91% | Percent inhibition of Factor 11 mRNA at 12,000 nM [1]: 93% | IC50 [1]: 440 nM

ISIS 416838: MOE gapmer, nucleobases 1018 to 1042 of SEQ ID NO: 1 (Table 6) (antisense GCAACCGGGATGATGAGTGC; MOE gapmer, wing and gap sizes not given here)
ALT ([2]; 2 weeks): 61 IU/L | AST ([2]; 2 weeks): 106 IU/L | Albumin ([2]; 2 weeks): 3.5 | Bilirubin ([2]; 2 weeks): 0.57 mg/dL | ALT ([2]; 4 weeks): 41 IU/L | AST ([2]; 4 weeks): 73 IU/L | Albumin ([2]; 4 weeks): 3.8 | Bilirubin ([2]; 4 weeks): 0.24 mg/dL | ALT ([2]; 6 weeks): 141 IU/L | AST ([2]; 6 weeks): 107 IU/L | Albumin ([2]; 6 weeks): 3.6 | Bilirubin ([2]; 6 weeks): 0.20 mg/dL | Organ weights, Kidney [3, 5]: 12 g | Organ weights, Liver [3, 5]: 63 g | Organ weights, Spleen [3, 5]: 5 g | body weights ([3]; day 1): 2720 g | body weights ([3]; day 8): 2592 g | body weights ([3]; day 15): 2642 g | body weights ([3]; day 22): 2702 g | body weights ([3]; day 29): 2689 g | body weights ([3]; day 36): 2708 g | body weights ([3]; day 43): 2700 g | body weights ([3]; day 50): 2731 g | body weights ([3]; day 57): 2737 g | body weights ([3]; day 64): 2746 g | body weights ([3]; day 71): 2869 g | body weights ([3]; day 78): 2766 g | percent inhibition of Factor 11 activity, relative to PBS control ([4]; day 8): 3% | percent inhibition of Factor 11 activity, relative to PBS control ([4]; day 15): 4% | percent inhibition of Factor 11 activity, relative to PBS control ([4]; day 22): 5% | percent inhibition of Factor 11 activity, relative to PBS control ([4]; day 29): 8% | percent inhibition of Factor 11 activity, relative to PBS control ([4]; day 36): 11% | percent inhibition of Factor 11 activity, relative to PBS control ([4]; day 43): 5% | percent inhibition of Factor 11 activity, relative to PBS control ([4]; day 50): 8% | percent inhibition of Factor 11 activity, relative to PBS control ([4]; day 57): 10% | percent inhibition of Factor 11 activity, relative to PBS control ([4]; day 64): 11% | percent inhibition of Factor 11 activity, relative to PBS control ([4]; day 71): 12% | percent inhibition of Factor 11 activity, relative to PBS control ([4]; day 78): 10% | percent inhibition of Factor 11 activity, relative to PBS control ([4]; day 85): 10% | percent inhibition of Factor 11 activity, relative to PBS control ([4]; day −5): 0% | percent inhibition of Factor 11 activity, relative to PBS control ([4]; day −14): 0%
